Results reported in patent US20050142581A1, “Microrna as ligands and target molecules” (priority 2003, published 2005).
Oligonucleotides are written 5' to 3', each unit as a sugar letter and its base; * is a phosphorothioate linkage, no mark a phosphodiester; rarer units and linkages stand in square brackets, end groups in braces. Plain capitals give the bases only. e = 2'-O-(2-methoxyethyl) (MOE); [5mC] = 5-methylcytosine; d = 2'-deoxy (DNA)

test system: human CD40 mRNA; test: Inhibition of CD40 mRNA levels by oligonucleotides (real-time RT-PCR); format: cell-based; design: concentration or dose not given beside the values; settings: 2'-MOE gapmers, 18 nucleotides, phosphorothioate throughout; averaged from three experiments
Experimental: When cells reach about 80% confluency, they are treated with oligonucleotide. For cells grown in 96-well plates, wells are washed once with 200 μl Opti-MEM-1 reduced-serum medium (Life Technologies) and then treated with 130 μl of Opti-MEM-1 containing 3.75 μg/ml LIPOFECTIN (Life Technologies) and the desired oligonucleotide at a final concentration of 150 nM. After 4 hours of treatment, the medium was replaced with fresh medium. Cells were harvested 16 hours after oligonucleotide treatment.
Poly(A)+ mRNA was isolated according to Miura et al. (Clin. Chem., 1996, 42, 1758). Briefly, for cells grown on 96-well plates, growth medium was removed from the cells and each well was washed with 200 ul cold PBS. 60 ul lysis buffer (10 mM Tris-HCl, pH 7.6, 1 mM EDTA, 0.5 M NaCl, 0.5% NP-40, 20 mM vanadyl-ribonucleoside complex) was added to each well, the plate was gently agitated and then incubated at room temperature for five minutes. 55 ul of lysate was transferred to Oligo d(T) coated 96 well plates (AGCT Inc., Irvine, Calif.). Plates were incubated for 60 minutes at room temperature, washed 3 times with 200 ul of wash buffer (10 mM Tris-HCl pH 7.6, 1 mM EDTA, 0.3 M NaCl). After the final wash, the plate was blotted on paper towels to remove excess wash buffer and then air-dried for 5 minutes. 60 ul of elution buffer (5 mM Tris-HCl pH 7.6), preheated to 70° C. was added to each well, the plate was incubated on a 90° hot plate for 5 minutes, and the eluate then transferred to a fresh 96 well plate. Cells grown on 100 mm or other standard plates may be treated similarly, using appropriate volumes of all solutions.
Quantitation of CD40 mRNA levels was determined by real-time PCR (RT-PCR) using the ABI PRISM 7700 Sequence Detection System (PE-Applied Biosystems, Foster City, Calif.) according to manufacturer's instructions. This is a closed-tube, non-gel-based, fluorescence detection system which allows high-throughput quantitation of polymerase chain reaction (PCR) products in real-time.
As opposed to standard PCR, in which amplification products are quantitated after the PCR is completed, products in RT-PCR are quantitated as they accumulate. This is accomplished by including in the PCR reaction an oligonucleotide probe that anneals specifically between the forward and reverse PCR primers, and contains two fluorescent dyes. A reporter dye (e.g., JOE or FAM, PE-Applied Biosystems, Foster City, Calif.) is attached to the 5′ end of the probe and a quencher dye (e.g., TAMRA, PE-Applied Biosystems, Foster City, Calif.) is attached to the 3′ end of the probe. When the probe and dyes are intact, reporter dye emission is quenched by the proximity of the 3′ quencher dye. During amplification, annealing of the probe to the target sequence creates a substrate that can be cleaved by the 5′-exonuclease activity of Taq polymerase.
With each cycle, additional reporter dye molecules are cleaved from their respective probes, and the fluorescence intensity is monitored at regular (six-second) intervals by laser optics built into the ABI PRISM 7700 Sequence Detection System. In each assay, a series of parallel reactions containing serial dilutions of mRNA from untreated control samples generates a standard curve that is used to quantitate the percent inhibition after antisense oligonucleotide treatment of test samples.
RT-PCR reagents were obtained from PE-Applied Biosystems, Foster City, Calif. RT-PCR reactions were carried out by adding 25 ul PCR cocktail (1× Taqman buffer A, 5.5 mM MgCl2, 300 uM each of dATP, dCTP and dGTP, 600 uM of dUTP, 100 nM each of forward primer, reverse primer, and probe, 20 U RNAse inhibitor, 1.25 units AmpliTaq Gold, and 12.5 U MuLV reverse transcriptase) to 96 well plates containing 25 ul poly(A) mRNA solution. […]

| Substance | % Inhibition (Inhibition of CD40 mRNA Levels by Chimeric Phosphorothioate Oligonucleotides) |
| --- | --- |
| 19211 (DNA e[5mC]*e[5mC]*eA*eG*dG*dC*dG*dG*dC*dA*dG*dG*dA*dC*e[5mC]*eA*e[5mC]*eT; antisense) [compound 19211] | 75.71% |
| 19212 (DNA eG*eA*e[5mC]*e[5mC]*dA*dG*dG*dC*dG*dG*dC*dA*dG*dG*eA*e[5mC]*e[5mC]*eA; antisense) [compound 19212] | 77.23% |
| 19213 (DNA eA*eG*eG*eT*dG*dA*dG*dA*dC*dC*dA*dG*dG*dC*eG*eG*e[5mC]*eA; antisense) [compound 19213] | 80.82% |
| 19214 (DNA e[5mC]*eA*eG*eA*dG*dG*dC*dA*dG*dA*dC*dG*dA*dA*e[5mC]*e[5mC]*eA*eT; antisense) [compound 19214] | 23.68% |
| 19215 (DNA eG*e[5mC]*eA*eG*dA*dG*dG*dC*dA*dG*dA*dC*dG*dA*eA*e[5mC]*e[5mC]*eA; antisense) [compound 19215] | 45.97% |
| 19216 (DNA eG*e[5mC]*eA*eA*dG*dC*dA*dG*dC*dC*dC*dC*dA*dG*eA*eG*eG*eA; antisense) [compound 19216] | 65.80% |
| 19217 (DNA eG*eG*eT*e[5mC]*dA*dG*dC*dA*dA*dG*dC*dA*dG*dC*e[5mC]*e[5mC]*e[5mC]*eA; antisense) [compound 19217] | 74.73% |
| 19218 (DNA eG*eA*e[5mC]*eA*dG*dC*dG*dG*dT*dC*dA*dG*dC*dA*eA*eG*e[5mC]*eA; antisense) [compound 19218] | 67.21% |
| 19219 (DNA eG*eA*eT*eG*dG*dA*dC*dA*dG*dC*dG*dG*dT*dC*eA*eG*e[5mC]*eA; antisense) [compound 19219] | 65.14% |
| 19220 (DNA eT*e[5mC]*eT*eG*dG*dA*dT*dG*dG*dA*dC*dA*dG*dC*eG*eG*eT*e[5mC]; antisense) [compound 19220] | 78.71% |
| 19221 (antisense eG*eG*eT*eG*dG*dT*dT*dC*dT*dG*dG*dA*dT*dG*eG*eA*e[5mC]*eA) [compound 19221] | 81.33% |

same assay, conditions: oligodeoxynucleotides with phosphorothioate backbones throughout; averages from three experiments

| Substance | % INHIB. (Inhibition of CD40 mRNA Levels by Phosphorothioate Oligodeoxynucleotides) |
| --- | --- |
| 18699 (DNA dT*dG*dG*dC*dA*dT*dC*dC*dA*dT*dG*dT*dA*dA*dA*dG*dT*dC; antisense) [compound 18699] | 0.00% |
| 18700 (DNA dC*dG*dG*dT*dT*dG*dG*dC*dA*dT*dC*dC*dA*dT*dG*dT*dA*dA; antisense) [compound 18700] | 0.00% |
| 18701 (DNA dC*dT*dC*dT*dT*dT*dG*dC*dC*dA*dT*dC*dC*dT*dC*dC*dT*dG; antisense) [compound 18701] | 4.38% |
| 18702 (DNA dC*dT*dG*dT*dC*dT*dC*dT*dC*dC*dT*dG*dC*dA*dC*dT*dG*dA; antisense) [compound 18702] | 0.00% |
| 18703 (DNA dG*dG*dT*dG*dC*dA*dG*dC*dC*dT*dC*dA*dC*dT*dG*dT*dC*dT; antisense) [compound 18703] | 0.00% |
| 18704 (DNA dA*dA*dC*dT*dG*dC*dC*dT*dG*dT*dT*dT*dG*dC*dC*dC*dA*dC; antisense) [compound 18704] | 33.89% |
| 18705 (DNA dC*dT*dT*dC*dT*dG*dC*dC*dT*dG*dC*dA*dC*dC*dC*dC*dT*dG; antisense) [compound 18705] | 0.00% |
| 18706 (DNA dA*dC*dT*dG*dA*dC*dT*dG*dG*dG*dC*dA*dT*dA*dG*dC*dT*dC; antisense) [compound 18706] | 0.00% |
